# Results published in paper PMC8619001, “Discovery of New Ginsenol-Like Compounds with High Antiviral Activity” (Molecules, 2021).
# System: influenza virus A/Puerto Rico/8/34 (H1N1), GS-R virus
# Experiment: microbe, parasite or virus in culture
# Assay type: cell-based
structure (smiles),measurement,setting,value
"CC(=O)NC12CC(C)(C)C3CCC1(C)CCCC32C [Compound 1a, (1S,3aR,4R,7aS)-N-(2,2,4,7a-tetramethyloctahydro-1,4-etanoinden-3a-yl)-acetamide]",Fold increase of IC50 versus virus passaged without GS,,almost five-fold higher
same,IC50,"unidentified influenza virus, H1N1, MDCK, read-out: IC50 to GS",106 µM
